Test [1] deals with Recombinant human CD33 protein (Homo sapiens (Human), UniProt P20138). The test can be described thus: CD33 competitive binding assay for HTS drug screen (fluorescent multivalent sialic acid probe). In a few lines: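 Inhibition was read as reduced retention of a fluorescent multivalent sialic acid complex (final 5 μM neutravidin, 15 μM A-375, 5 μM biotin-4-FITC) on plate-immobilized human CD33. Compound was added first, the probe followed for 30 min at room temperature in PBS with 0.2% Tween-20 and 0.5% BSA, and FITC was measured after a wash.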

In test [2] the target is Recombinant Human Siglec-3/CD33 protein (His-CD33) (Homo sapiens (Human), UniProt P20138). Description: Differential scanning fluorimetry (DSF) thermal shift assay. Format: binding.
Where [3] appears, read: difference in thermal melt of CD33 protein (0.5 μM) with 50 μM compound.
Setting [4] is: thermal melt shift of 0.5 μM CD33 protein with 50 μM compound.

Sequence of Recombinant Human Siglec-3/CD33 protein (His-CD33) (P20138 18-259): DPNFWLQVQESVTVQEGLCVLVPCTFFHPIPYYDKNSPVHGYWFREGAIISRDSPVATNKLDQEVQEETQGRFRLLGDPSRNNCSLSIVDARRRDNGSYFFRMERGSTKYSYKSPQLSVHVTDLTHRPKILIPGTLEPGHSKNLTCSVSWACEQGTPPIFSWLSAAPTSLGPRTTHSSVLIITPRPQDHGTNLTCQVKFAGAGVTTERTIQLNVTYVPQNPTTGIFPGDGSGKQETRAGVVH
Sequence of Recombinant human CD33 protein (P20138 18-259): as above

For the molecule `Cc1cc(C(=O)NC[C@@H](O)[C@@H](O)[C@@H]2O[C@@](C/C=C/c3cccc(CNC(=O)C4CCOCC4)c3)(C(=O)O)C[C@H](O)[C@H]2NC(=O)Cn2cc(C3CCCCC3)nn2)cc(C)c1O` [A-261], the EC50 in test [1] was 1440 nM. Besides, the “DSF (dTmD)” value in test [2] (setting [3]) is 4.4 °C.
`CC(=O)N[C@H]1[C@H]([C@H](O)[C@H](O)CNC(=O)c2cc(C)c(O)c(C)c2)O[C@@](CCN2CCOC[C@@]23CCN(C(=O)N(C)c2ccccc2)C3)(C(=O)O)C[C@@H]1O` [A-059]: the EC50 in test [1] amounted to 60 nM. Moreover, the “DSF (dTmD)” value in test [2] (setting [4]) is 9.3.
For the molecule `CC(=O)N[C@H]1[C@H]([C@H](O)[C@H](O)CNC(=O)c2cc(C)c(O)c(C)c2)O[C@@](CCN2CCOC[C@@]23CCN(C(=O)OC(C)(C)C)C3)(C(=O)NS(=O)(=O)C(F)(F)F)C[C@@H]1O` [A-367], the EC50 in test [1] is more than 100000 nM. In addition, the “DSF (dTmD)” value in test [2] (setting [3]) worked out at 0.1 °C.
As for `CC(=O)N[C@H]1[C@H]([C@H](O)[C@H](O)CNC(=O)c2cnc(O)c(C)c2)O[C@@](CCN2CCOC[C@@]23CCN(C(=O)OC(C)(C)C)C3)(C(=O)O)C[C@@H]1O` [A-189], in test [1], the concentration giving a half-maximal response (EC50) turned out to be 150 nM. For the same molecule, the “DSF (dTmD)” value in test [2] (setting [4]) was determined as 9.8.
Take `Cc1cc2cc(C)c1OCCOC[C@@H](NC(=O)C1CCCOC1)COC/C=C/C[C@]1(C(=O)O)C[C@H](O)[C@@H](NC(=O)Cn3cc(C4CCCCC4)nn3)[C@@H](O1)[C@H](O)[C@H](O)CNC2=O` (stereo partly shown) [A-341]: in test [1], the EC50 came to 9980 nM. In addition, the “DSF (dTmD)” value in test [2] (setting [3]) came to 2.7 °C.
Regarding `CC(=O)N[C@H]1[C@H]([C@H](O)[C@H](O)CNC(=O)c2ccc(=O)n(C)c2)O[C@@](CCN2CCOC[C@@]23CCN(C(=O)OC(C)(C)C)C3)(C(=O)O)C[C@@H]1O` [A-170], the EC50 in test [1] is 3870 nM. In test [2] (setting [4]), the “DSF (dTmD)” value is given as 6.0.
As to `CC(=O)N[C@H]1[C@H]([C@H](O)[C@H](O)CNC(=O)c2cc(C)c(O)c(C)c2)O[C@@](C/C=C/c2cccc(CNC(=O)c3ccc4[nH]c(C)c(C)c4c3)c2)(C(=O)O)C[C@@H]1O` [A-238], the concentration giving a half-maximal response (EC50) in test [1] was found to be 347 nM. Further, in test [2] (setting [3]), the “DSF (dTmD)” value came out at 9.2 °C.
Consider `Cc1cc(C(=O)NC[C@@H](O)[C@@H](O)[C@@H]2O[C@@](OC3CCCCC3NC(=O)Cn3cc(-c4ccccc4)nn3)(C(=O)O)C[C@H](O)[C@H]2NC(=O)Cn2cc(C3CCCCC3)nn2)cc(C)c1O` (stereo partly shown) [A-333], for which the EC50 in test [1] turned out to be 12200 nM. In test [2] (setting [3]), the “DSF (dTmD)” value was 4.5 °C.
On to `CC(=O)N[C@H]1[C@H]([C@H](O)[C@H](O)CNC(=O)c2cc(C)c(O)c(C)c2)O[C@@](C/C=C/C2CCN(C(=O)OC(C)(C)C)C2)(C(=O)O)C[C@@H]1O` (stereo partly shown) [A-194], for which the EC50 in test [1] is 26 nM. In addition, the “DSF (dTmD)” value in test [2] (setting [4]) is listed as 11.7.
Take `CC(=O)N[C@H]1[C@H]([C@H](O)[C@H](O)CNC(=O)c2cnc3[nH]ncc3c2)O[C@@](CCN2CCOC[C@@]23CCN(C(=O)OC(C)(C)C)C3)(C(=O)O)C[C@@H]1O` [A-126]: the 50% effective concentration (EC50) in test [1] came out at 50 nM. Further, in test [2] (setting [4]), the “DSF (dTmD)” value is 11.2.
Take `CC(=O)N[C@H]1[C@H]2O[C@](C(=O)O)(CC/C=C/CO[C@H]3C[C@H](CN3C(=O)C3CCCOC3)OCCOc3c(C)cc(cc3C)C(=O)NC[C@@H](O)[C@H]2O)C[C@@H]1O` (stereo partly shown) [A-357]: in test [1], the EC50 came to 66100 nM. The “DSF (dTmD)” value in test [2] (setting [3]) was found to be 1.1 °C.
In the case of `CC(=O)N[C@H]1[C@H]([C@H](O)[C@H](O)CNC(=O)c2ccc3nsnc3c2)O[C@@](CCN2CCOC[C@@]23CCN(C(=O)OC(C)(C)C)C3)(C(=O)O)C[C@@H]1O` [A-153], the EC50 in test [1] was 196 nM. For the same molecule, the “DSF (dTmD)” value in test [2] (setting [4]) is 10.1.
With `Cc1cc(C(=O)NC[C@@H](O)[C@@H](O)[C@@H]2O[C@@](CC3OC(C)(C)O[C@H]3c3cccc(CNC(=O)OC(C)(C)C)c3)(C(=O)O)C[C@H](O)[C@H]2NC(=O)Cn2cc(C3CCCCC3)nn2)cc(C)c1O` (stereo partly shown) [A-301], the EC50 in test [1] was found to be 5260 nM. Moreover, the “DSF (dTmD)” value in test [2] (setting [3]) amounted to 3.5 °C.
On to `CC(=O)N[C@H]1[C@H]([C@H](O)[C@H](O)CNC(=O)c2cnc3[nH]nc(C)c3c2)O[C@@](CCN2CCOC[C@@]23CCN(C(=O)OC(C)(C)C)C3)(C(=O)O)C[C@@H]1O` [A-127], for which, in test [1], the EC50 amounted to 59 nM. For the same molecule, the “DSF (dTmD)” value in test [2] (setting [4]) is recorded as 11.7.
